# Experimental data from PubChem BioAssay AID179 (DTP/NCI, 2004).
# Where “and” joins values, the source holds several entries; their conditions need not be identical. Equal entries are not always repeated. Calls of active or inactive are those of the source.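 How the source made its calls: active means compounds giving half or more protection of infected cells from virus-caused growth loss, again on retest; inactive means the rest.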 Where a SMILES comes first, the peptide text is derived from it. The star is where a group is joined. OBn = c1ccc(CO*)cc1
# Test system: CEM cells HIV-1 protection, formazan growth assay
# Assay: NCI AIDS Antiviral Assay
# Settings: for IC50: measured here: growth of uninfected CEM cells
# Outline: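 Protection of CEM cells against HIV-1 was scored from cell growth (soluble formazan) across five concentrations, with parallel uninfected cells. Lack of protection may reflect toxicity.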
SMILES,EC50,IC50,outcome
NC(CCC(=O)OCc1ccccc1)C(=O)NC(CCC(=O)OCc1ccccc1)C(=O)O (stereo not given) (H-Glu(OBn)-Glu(OBn)-OH; configuration not given here),> 1000 µM,> 1000 µM,–
CC(C)OP(=O)(OC(C)C)c1nc(-c2ccccc2)n(-c2ccc([N+](=O)[O-])cc2)n1,> 302 µM,219 µM,–
CCOC(=O)n1c2ccccc2c(=O)n1CCO,> 200 µM,> 200 µM,–
c1ccc2c(c1)CCN(C1=NCCO1)C2,> 200 µM,178 µM,–
O=C1C=C[C@@]23C=Cc4ccccc4C2CC(O)C1C3 (stereo not given in full),> 245 µM,135 µM,–
CC(=O)n1c2c(c(=O)n1-c1ccccc1)S(=O)CCC2 (stereo not given),> 123 µM,89.1 µM,–
COC(=O)NC1C(C)OC(OC2C/C=C(/C)C3C=CC4C(OC5CC(OC6CC(O)C(OC7CC(O)C(OC)C(C)O7)C(C)O6)C(O)C(C)O5)C(C)CC(C)C4C3(C)/C(O)=C3\C(=O)OC4(CC(C)C(CO)=CC4/C=C\2C)C3=O)CC1(C)[N+](=O)[O-] (stereo not given),> 209 µM,4.79 µM,–
NC1(CSS(=O)(=O)O)CCN1 (stereo not given),> 200 µM,> 200 µM,–
COC(=O)C1(C(=O)OC)C2(CCCC2)C1(C(=O)OC)C(=O)OC,> 200 µM,> 200 µM,–
O=C(c1cccc(C(=O)c2ccc3c4c(cccc24)C(=O)N(c2ccccc2)C3=O)c1)c1ccc2c3c(cccc13)C(=O)N(c1ccccc1)C2=O,> 200 µM,> 200 µM,–
Nc1nc2c(c(=O)[nH]1)NC(CO)CN2 (stereo not given),–,–,inactive
O=C(O)c1cc(O)cc(O)c1CNc1ccc(/C=C\c2ccc(NCc3c(O)cc(O)cc3C(=O)O)cc2S(=O)(=O)O)c(S(=O)(=O)O)c1,> 87.1 µM,> 87.1 µM,–
Oc1ccc2ccccc2c1Br,> 200 µM,162 µM,–
O=C1CCC(c2ccccc2)C(O)(C(=O)O)C1 (stereo not given),> 389 µM,> 389 µM,–
CC(=O)NC1=CC(=O)c2cc(C)cc(O)c2C1=O,> 200 µM,5.01 µM,–
CNc1ccc(C)cc1S(=O)(=O)c1ccc([N+](=O)[O-])cc1,> 200 µM,> 200 µM,–
COc1cc2c(cc1OC)C1Cc3cc(OC)c(OC)cc3C(C2)N1C,> 708 µM,52.5 µM and 64.6 µM,–
CCCCCC=C(c1cc(Br)c(OC)c(C(=O)O)c1)c1cc(Br)c(OC)c(C(=O)O)c1,> 200 µM,91.2 µM,–
C#CCn1c(=O)c2ccccc2n(CC#C)c1=O,> 200 µM,> 200 µM,–
Cc1c(-c2nnc(-c3ccccc3)o2)c(=O)n(-c2ccccc2)n1C,> 200 µM,> 200 µM,–
CCC[CH2][Sn]([Cl])([CH2]CCC)[S]C(=S)NCCNC(=S)[S][Sn]([Cl])([CH2]CCC)[CH2]CCC,> 2 µM,0.102 µM,–
CC(=O)NNc1nc(C)c(C(=O)NNC(=O)C(=O)Nc2c(C)cccc2C(C)(C)C)s1,> 151 µM,26.3 µM,–

SMILES,EC50,IC50,outcome
COC1OC2=CCC3C(=O)NC(=O)C3C2[C@H](OCc2ccccc2)C1OCc1ccccc1 (stereo not given in full),–,–,inactive
CCOC(=O)c1cc(-c2ccc(-c3cc(C(=O)OCC)c(C#N)c(N)c3C#N)cc2)c(C#N)c(N)c1C#N,> 26.9 µM,> 26.9 µM,–
Nc1cccc2nnccc12,> 200 µM,> 200 µM,–
O=Nc1c(O)[nH]c(=O)[nH]c1=O,> 200 µM,> 200 µM,–
CCOP(=O)(OCC)C(N)Cc1ccc(OC)c(OC)c1 (stereo not given),> 200 µM,> 200 µM,–
NCP(=O)(O)OCC(=O)O,–,–,inactive
Nc1[nH]c(=O)ncc1F,> 200 µM,> 200 µM,–
CCCC/C=C/C1Cc2ccccc2CN1S(=O)(=O)c1ccc(C)cc1 (stereo not given),> 25.1 µM,5.25 µM,–
CC1=NN(C(=O)CC(=O)Nc2cccc(Cl)c2)C(=O)C1N=Nc1ccc(S(N)(=O)=O)cc1 (stereo not given),> 55 µM,> 55 µM,–
CC1=N[C@@](C)(C2CC3C=CC2C3=O)COC1=O (stereo not given in full),> 288 µM,> 288 µM,–
CCOC(=O)c1ccc(NC(=S)Nc2ncccc2C)cc1,> 200 µM,158 µM,–
c1ccc(-c2cc(-c3cc(-c4ccccc4)n[nH]3)[nH]n2)cc1,> 200 µM,> 200 µM,–
N#Cc1ccc(C=NC23CC4CC(CC(C4)C2)C3)cc1,> 67.6 µM,> 67.6 µM,–
O=C1c2cccc(NCCNCCO)c2C(=O)c2cccc(NCCNCCO)c21,–,–,inactive
COc1ccc(C[C@H]2COC(=O)[C@@H]2Cc2ccc(OC)c(OC)c2)cc1OC,> 200 µM,123 µM,–
COc1ccc(-n2c(N)c(C#N)c(C#N)c2-c2ccccc2)cc1,> 200 µM,12 µM,–
CC(=O)OC1C(O[C@H]2CC[C@]34O[C@]35CC[C@]3(C)C(C6(C)CC[C@@H](C(C)(C)O)O6)[C@@H](O)CC3(C)[C@@H]5CC(OC3OC(CO)C(O)C(O)C3O)C4C2(C)C)OCC(O)C1O (stereo not given in full),67.6 µM,302 µM,–
Cn1cc(C(=O)c2ccccc2)ccc1=O,> 617 µM,479 µM,–
CN(C)CCNC(=O)c1cccc2c(NCCN(C)C)c3ccccc3nc12,> 20 µM,2.09 µM,–
CC(C)(C)C1=CC(=N/N=c2\scc(-c3ccccc3)n2-c2ccccc2)C=C(C(C)(C)C)C1=O,> 15.1 µM,> 15.1 µM,–
O=C(NN1C(=O)C(Cl)C1c1ccccc1Cl)c1ccccc1O (stereo not given),> 14.8 µM,> 14.8 µM,–
CN(CC#N)C(=O)Cc1ccc([N+](=O)[O-])cc1,> 200 µM,> 200 µM,–

SMILES,EC50,IC50,outcome
Cc1nn(C2OC(CO)C(O)C(F)C2O)c(=O)[nH]c1=O (stereo not given),> 200 µM,> 200 µM,–
CCOC(=O)c1cc2nc3ccccc3c(=O)n2c2ccccc12,> 200 µM,> 200 µM,–
CN1CCN(C(=S)N2CCN(C)CC2)CC1,> 2 µM,1.91 µM,–
O=S(=O)(O)SCCNCC(O)C(O)CNCCSS(=O)(=O)O (stereo not given),> 617 µM,120 µM,–
NC(=O)N/N=C1/CCCCC1c1ccccc1 (stereo not given),> 407 µM,> 407 µM,–
Cc1ccc(-c2c(C#N)c(-c3ccc([N+](=O)[O-])cc3)c(C#N)c(=O)n2NS(=O)(=O)c2ccccc2)cc1,> 200 µM,16.6 µM,–
CCc1nc2cc(F)ccc2[nH]c1=O,> 200 µM,132 µM,–
COC(=O)c1cc2ccc(OC(C)=O)c(OC(C)=O)c2cn1,> 166 µM,0.851 µM,–
CN(C)/C=N\c1nn[nH]n1,> 200 µM,3.63 µM,–
CC(C)[Si](CC1=CCCCC12C(=O)N(COCC[Si](C)(C)C)c1ccccc12)(C(C)C)C(C)C (stereo not given),> 200 µM,> 200 µM,–
Cc1cc(NS(=O)(=O)c2ccc(NC(=O)COC(=O)c3cccc4c(=O)c5ccccc5[nH]c34)cc2)no1,–,–,inactive
Cn1c(N)c(/C=C/C(=O)Oc2ccccc2)c(=O)n(C)c1=O,–,–,inactive
COC12c3ccccc3-c3ccccc3C1[C@@H](C(=O)O)[C@H]2C(=O)O (stereo not given in full),> 776 µM,> 776 µM,–
C=C(Br)CC12CC3(CCC1c1ccc(OC)cc1C2=O)OCCO3 (stereo not given),> 110 µM,> 110 µM,–
CC1(C)/C(=N\O)C2(OS(=O)(=O)C(F)(F)F)CCC1C2 (stereo not given),> 200 µM,> 200 µM,–
O=C1SC(c2ccc(Cl)cc2)(c2ccc(Cl)cc2)c2ccccc21,> 200 µM,93.3 µM,–
O=C1NC(O)c2cc(Cl)ccc2O1 (stereo not given),–,–,inactive
O/N=C1/CCCCC1NO (stereo not given),> 200 µM,117 µM,–
CCC1=CCC(P(=O)(c2ccccc2)c2ccccc2)CC1C (stereo not given),> 11.5 µM,> 11.5 µM,–
Cc1cn(CC2=NC3CCCCC3N2)c(=O)[nH]c1=O (stereo not given),> 200 µM,> 200 µM,–
COc1ccc(C(=O)N=C2N(c3ccccc3)C(=Nc3ccccc3)C(=Nc3ccccc3)N2c2ccccc2)cc1,> 200 µM,8.32 µM,–
CCOC(=O)CCNC(=O)Sc1ccccc1C(=O)NCCC(N)=O,1.2 µM,110 µM,–

SMILES,EC50,IC50,outcome
O=C(NP1(=O)NCc2ccccc2CN1)OC1CCCCC1,> 288 µM,> 288 µM,–
O=C/C(=C1/C=Cc2cc([N+](=O)[O-])ccc2S1)c1ccccc1,> 200 µM,> 200 µM,–
NC1=NC(Cn2nc(-c3ccccc3)c3ccccc3c2=O)=NNC(=O)N1,> 20 µM,> 20 µM,–
N=c1c2c(ncn1N)Oc1c(c(-c3ccccc3)nn1-c1ccccc1)C2c1ccc(Cl)cc1 (stereo not given),> 200 µM,2.09 µM,–
COc1cccc(SSc2cccc(OC)c2OC)c1OC,> 200 µM,16.6 µM,–
CCP(=O)(CC)C(Cl)(Cl)C(=O)NC,> 200 µM,> 200 µM,–
CCCCC1Sc2cc(OC)cc3nnn(c23)C1=O (stereo not given),> 200 µM,> 200 µM,–
CC(=O)N(C(=O)CC(=O)N/N=C\c1ccc(Br)c(N(CCC#N)CCC#N)c1)c1ccc(Cl)cc1,> 200 µM,> 200 µM,–
CC(C)(C)C1CCC(O)(c2ccccc2)CC1 (stereo not given),> 42.7 µM,> 42.7 µM,–
C=CCOc1ccccc1C1(O)c2ccccc2C2=NCCCN21 (stereo not given),> 200 µM,40.7 µM,–
C=CCSC(C)=O,> 200 µM,> 200 µM,–
Cn1cc(NC(=O)c2cc(NC(=O)CCCCCCCCCC(=O)Nc3cc(C(=O)Nc4cc(C(=O)NCCC(=N)N)n(C)c4)n(C)c3)cn2C)cc1C(=O)NCCC(=N)N,4.37 µM,5.75 µM,–
O=C(N[C@H](CO)[C@H](O)c1ccc([N+](=O)[O-])cc1)C(Cl)Cl,> 200 µM,> 200 µM,–
COc1cccc(C2c3cc4c(cc3OC(N3CCCC3)C2C)OCO4)c1OC (stereo not given),> 200 µM,1.41 µM,–
CCOC(=O)/C(O)=C1\C(=O)N(C)C(=O)C1c1ccc(OC)c(OC)c1 (stereo not given),–,–,inactive
O=c1cc(-c2ccccc2)nc(/C=C(\O)c2ccncc2)n1-c1ccccc1,> 3.98 µM,> 3.98 µM,–
Nc1ccc(S(=O)(=O)c2ccc(NCNC(CSSCC(NCNc3ccc(S(=O)(=O)c4ccc(N)cc4)cc3)C(=O)O)C(=O)O)cc2)cc1 (stereo not given),> 200 µM,112 µM,–
CC(=O)Nc1ccc(/C=C2\C(=O)NC(=S)N2/C=C(\C#N)c2ccc([N+](=O)[O-])cc2)cc1,> 200 µM,72.4 µM,–
O=C1C=C2CCN(C(=O)c3ccccc3)CC2O1 (stereo not given),> 200 µM,> 200 µM,–
CC1=C2CC[C@]2(C)[C@]23OCC(C)(CC2C1=O)C3O (stereo not given in full),–,–,inactive
COc1ccc(CNc2nc3ccccc3nc2C(=O)O)cc1OC,> 200 µM,95.5 µM,–
